Reference: ChEMBL document CHEMBL1201862, “PubChem BioAssay data set” (2004)
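Protocol summary: plate cells (96-well), add compound at 5 concentrations, incubate 48 h, interpolate endpoints linearly. At the GI50, growth is halved.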 Active and inactive are the calls of the source. Cut-off read from the data, not from the text of the source: active = GI50 up to about 1.1 µM and inactive = higher.

Columns and labels:
Assay in all cases: NCI tumour cell line growth inhibition, 48 h
OVCAR-5 = system: OVCAR-5
SF-295 = system: SF-295
SF-268 = system: SF-268
SK-OV-3 = system: SK-OV-3
CAKI-1 = system: CAKI-1
SNB-75 = system: SNB-75
NCI/ADR-RES = system: NCI/ADR-RES
MDA-MB-435 = system: MDA-MB-435
MOLT-4 = system: MOLT-4
KM12 = system: KM12
DU-145 = system: DU-145
SNB-19 = system: SNB-19
OVCAR-3 = system: OVCAR-3
Malme-3M = system: Malme-3M
HT-29 = system: HT-29
OVCAR-4 = system: OVCAR-4
786-0 = system: 786-0
A549 = system: A549
SR = system: SR
U-251 = system: U-251

SMILES | GI50 (OVCAR-5) | GI50 (SF-295) | GI50 (SF-268) | GI50 (SK-OV-3) | GI50 (CAKI-1) | GI50 (SNB-75) | GI50 (NCI/ADR-RES) | GI50 (MDA-MB-435) | GI50 (MOLT-4) | GI50 (KM12) | GI50 (DU-145) | GI50 (SNB-19) | GI50 (OVCAR-3) | GI50 (Malme-3M) | GI50 (HT-29) | GI50 (OVCAR-4) | GI50 (786-0) | GI50 (A549) | GI50 (SR) | GI50 (U-251)
Nc1c(Br)cc(-c2cc(Br)c(N)c(Br)c2)cc1Br | > 100 µM (inactive) | > 100 µM (inactive) | > 100 µM (inactive) | > 100 µM (inactive) | > 100 µM (inactive) | 59 µM (inactive) | > 100 µM (inactive) | > 100 µM (inactive) | > 100 µM (inactive) | > 100 µM (inactive) | > 100 µM (inactive) | > 100 µM (inactive) | > 100 µM (inactive) | > 100 µM (inactive) | > 100 µM (inactive) | > 100 µM (inactive) | > 100 µM (inactive) | > 100 µM (inactive) | > 100 µM (inactive) | –
c1cc2ccc3cc4ncccc4c4ccc(c1)c2c34 | 84.7 µM (inactive) | 17.1 µM (inactive) | 30.7 µM (inactive) | 37.2 µM (inactive) | 18.5 µM (inactive) | 19.8 µM (inactive) | 31.6 µM (inactive) | 40.4 µM (inactive) | 8.59 µM (inactive) | 10.5 µM (inactive) | 57.4 µM (inactive) | 90.8 µM (inactive) | 82.2 µM (inactive) | 70.8 µM (inactive) | 23.2 µM (inactive) | – | 18.8 µM (inactive) | 9.31 µM (inactive) | < 0.01 µM (active) | 17.9 µM (inactive)
O=C(NCc1ccccc1)c1cnc(Cl)cn1 | – | > 100 µM (inactive) | > 100 µM (inactive) | > 100 µM (inactive) | 16.2 µM (inactive) | 29.7 µM (inactive) | 16.6 µM (inactive) | 62.7 µM (inactive) | 27.1 µM (inactive) | > 100 µM (inactive) | > 100 µM (inactive) | 63.8 µM (inactive) | 31.2 µM (inactive) | 34.3 µM (inactive) | 33.2 µM (inactive) | 16.7 µM (inactive) | > 100 µM (inactive) | > 100 µM (inactive) | 20.7 µM (inactive) | 48.2 µM (inactive)
Cc1ccc(SCC(OCn2cnc3c(N)ncnc32)[C@H](C)F)cc1 (some centres not stated) | > 100 µM (inactive) | > 100 µM (inactive) | > 100 µM (inactive) | > 100 µM (inactive) | > 100 µM (inactive) | > 100 µM (inactive) | 73.1 µM (inactive) | > 100 µM (inactive) | > 100 µM (inactive) | > 100 µM (inactive) | > 100 µM (inactive) | > 100 µM (inactive) | > 100 µM (inactive) | > 100 µM (inactive) | > 100 µM (inactive) | > 100 µM (inactive) | > 100 µM (inactive) | > 100 µM (inactive) | > 100 µM (inactive) | > 100 µM (inactive)
Cn1cnc([N+](=O)[O-])c1[Se]c1ncnc2nc[nH]c12 | 11.4 µM (inactive) | 4.21 µM (inactive) | 7.46 µM (inactive) | 15.4 µM (inactive) | 0.925 µM (active) | 19.6 µM (inactive) | 2.07 µM (inactive) | 2 µM (inactive) | 4.71 µM (inactive) | 5.69 µM (inactive) | 19.1 µM (inactive) | 24 µM (inactive) | 2 µM (inactive) | 3.72 µM (inactive) | 10 µM (inactive) | 3.32 µM (inactive) | 10.4 µM (inactive) | 27.5 µM (inactive) | 2.04 µM (inactive) | 4.6 µM (inactive)
C/C(=N\Nc1nc2ccccc2o1)c1cc2ccccc2cn1 | 0.225 µM (active) | 0.174 µM (active) | < 0.0188 µM (active) | 0.0474 µM (active) | < 0.01 µM (active) | 0.476 µM (active) | < 0.01 µM (active) | 0.202 µM (active) | < 0.01 µM (active) | 0.0346 µM (active) | 0.349 µM (active) | 0.547 µM (active) | < 0.01 µM (active) | < 0.01 µM (active) | < 0.01 µM (active) | 0.0906 µM (active) | < 0.01 µM (active) | 0.054 µM (active) | 0.112 µM (active) | < 0.0215 µM (active)
